Several values for one entry are separate records, joined by “and”; a condition that tells them apart may be missing. Identical values can stand only once.

In assay [1] the target is T1, Genome polyprotein (dengue virus type 2, UniProt P29990). It counts as functional, Thailand/16681/1984.
The target in assay [2] is T1, Genome polyprotein. It is filed as functional, Thailand/16681/1984. This is another data set of the same source.

T1 sequence (P29990 1346-1475 limits assumed): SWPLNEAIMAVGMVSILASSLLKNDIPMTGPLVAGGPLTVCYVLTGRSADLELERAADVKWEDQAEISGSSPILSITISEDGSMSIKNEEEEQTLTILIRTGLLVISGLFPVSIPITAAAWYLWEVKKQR
T1 sequence (P29990 1476-2093 limits assumed): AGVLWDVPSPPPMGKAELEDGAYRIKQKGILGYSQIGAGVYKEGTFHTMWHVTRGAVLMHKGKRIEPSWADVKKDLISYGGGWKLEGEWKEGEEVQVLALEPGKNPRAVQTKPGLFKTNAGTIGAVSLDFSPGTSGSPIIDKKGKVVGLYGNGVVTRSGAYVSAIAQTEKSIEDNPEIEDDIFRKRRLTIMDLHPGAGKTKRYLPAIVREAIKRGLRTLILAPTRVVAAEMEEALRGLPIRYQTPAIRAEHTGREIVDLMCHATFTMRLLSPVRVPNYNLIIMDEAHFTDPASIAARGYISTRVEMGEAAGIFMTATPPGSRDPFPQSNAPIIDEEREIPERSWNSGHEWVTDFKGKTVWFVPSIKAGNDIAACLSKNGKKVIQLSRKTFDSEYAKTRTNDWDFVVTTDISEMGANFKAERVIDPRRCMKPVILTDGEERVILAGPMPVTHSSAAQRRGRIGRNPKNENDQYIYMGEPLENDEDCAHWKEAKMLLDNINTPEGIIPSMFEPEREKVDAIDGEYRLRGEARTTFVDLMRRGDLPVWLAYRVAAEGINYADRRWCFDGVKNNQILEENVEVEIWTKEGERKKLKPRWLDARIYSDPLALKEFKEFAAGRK

Take `Cn1nc([C@H](C#N)Nc2cccc([C@H]3CCOC3)c2)cc1C1CC1`: the 50% inhibitory concentration (IC50) (in general, the point on the concentration scale where inhibition reaches its midpoint) against Genome polyprotein [1] was over 99.5 µM; against Genome polyprotein [2], over 100 µM.

As to `O=C(O)c1ccc(-c2cc(NC(=O)c3cc(F)cc4[nH]ncc34)cc3c2CNC3)cc1`, the 50% inhibitory concentration (IC50) against Genome polyprotein [1] was 75.4 µM; on Genome polyprotein [2], 54.7 µM and 75 µM.

For `O=C(Nc1ccc2c(c1)CNC2)c1cc(F)cc(-c2cn[nH]c2)c1`, the IC50 on Genome polyprotein [1] is over 99.5 µM; at Genome polyprotein [2], 74.7 µM.

Regarding `O=C(Nc1ccc2c(c1)CNC2)c1cc(F)cc(-c2ccnc3c2CCO3)c1`, the IC50 against Genome polyprotein [1] was 83.8 µM; against Genome polyprotein [2] it was over 100 µM.

As for `COc1ccc(OC)c([C@H]2CCCN2C(=O)Nc2ccc3c(c2)CNC3)c1`, the results for the IC50 on Genome polyprotein [1] and against Genome polyprotein [2] were over 99.5 µM and over 100 µM, respectively.

Take `Fc1cc(CNc2ccc3c(n2)CNC3)c2cn[nH]c2c1`: the half-maximal inhibitory concentration (IC50) against Genome polyprotein [1] is over 99.5 µM; against Genome polyprotein [2], over 100 µM.

`Cc1c(C(=O)Nc2ccc3c(c2)CCS3(=O)=O)cc(C2CC2)n1C`: the results for the IC50 on Genome polyprotein [1] and against Genome polyprotein [2] were over 99.5 µM and over 100 µM, respectively.

As for `N#Cc1cccc(-c2nc3c(C(=O)Nc4ccc5c(c4)CNC5)cc(F)cc3[nH]2)c1`, the half-maximal inhibitory concentration (IC50) is 6.2 µM and 4.83 µM on Genome polyprotein [1]; 10.9 µM and 29.7 µM against Genome polyprotein [2].

Turning to `COC[C@]1(c2nc3c(C(=O)Nc4ccc5c(c4)CNC5)cc(F)cc3[nH]2)CCOC1`, the IC50 against Genome polyprotein [1] is over 99.5 µM; at Genome polyprotein [2] it was over 100 µM.

For the compound `CC(=O)N1CCCc2cc(NC(=O)c3cc(C4CC4)n(C)c3C)ccc21`, the figures for the IC50 against Genome polyprotein [1] and against Genome polyprotein [2] were over 99.5 µM and over 100 µM, respectively.

As to `N#Cc1c[nH]c2ccc(C(=O)Nc3ccc4c(c3)CNC4)cc12`, the IC50 against Genome polyprotein [1] was over 99.5 µM; on Genome polyprotein [2], over 100 µM.

Regarding `CNC(=O)[C@H](Nc1ccc2c(c1)CNC2)c1cc(Cl)cc2[nH]c(-c3ccccc3)nc12`, the concentration for half-maximal inhibition (IC50) at Genome polyprotein [1] was 49.6 µM; on Genome polyprotein [2], 21.2 µM and 23.2 µM.

On to `CC(C)Cn1cc2c(C(=O)Nc3ccc4c(c3)CNC4)cc(Cl)cc2n1`, for which the IC50 on Genome polyprotein [1] is over 99.5 µM; against Genome polyprotein [2], over 100 µM.

For `O=C(Nc1ccc2c(c1)CNC2)c1cc(Cl)cc2nn(C3CCOCC3)cc12`, the IC50 on Genome polyprotein [1] is 90.2 µM; against Genome polyprotein [2] it was over 100 µM.

For `O=C(NCCCF)[C@H](Nc1ccc2c(c1)CNC2)c1cc(Cl)cc(C2CC2)c1`, the IC50 at Genome polyprotein [1] is over 99.5 µM; against Genome polyprotein [2] it was over 100 µM.

For the compound `O=C(Nc1ccc2c(c1)CNC2)c1cc(F)cc(-c2ccc3c(=O)[nH]ncc3c2)c1`, the 50% inhibitory concentration (IC50) at Genome polyprotein [1] was 25 µM and 22.8 µM; at Genome polyprotein [2], 36 µM and 33.9 µM.

With `O=C(Nc1ccc2c(c1)CNC2)c1ccc2ncsc2n1`, the half-maximal inhibitory concentration (IC50) against Genome polyprotein [1] is over 99.5 µM; against Genome polyprotein [2] it was over 100 µM.

For the compound `CC(C)n1cc(C(=O)Nc2cc(-c3cccnc3)ccn2)cn1`, the IC50 against Genome polyprotein [1] was over 99.5 µM; on Genome polyprotein [2] it was over 100 µM.

As for `O=C(Nc1ccc2c(c1)CNC2)c1cc(Cl)cc2nn(C3COC3)cc12`, the IC50 against Genome polyprotein [1] was over 99.5 µM; against Genome polyprotein [2] it was over 100 µM.

For `CC(C)NC(=O)[C@H](Nc1ccc2c(c1)CN(C)C2(C)C)c1cc(Cl)cc2[nH]ncc12`, the figures for the concentration for half-maximal inhibition (IC50) against Genome polyprotein [1] and on Genome polyprotein [2] were 98.9 µM and 28.2 µM, respectively.

Consider `O=C(NCCOCC1CC1)[C@H](Nc1ccc2c(c1)CNC2)c1cc(Cl)cc(C2CC2)c1`, for which the IC50 against Genome polyprotein [1] was over 99.5 µM; against Genome polyprotein [2] it was over 100 µM.

Consider `CC1(c2nc(C(=O)Nc3cc(-c4cccnc4)ccn3)no2)CC1`, for which the IC50 is over 99.5 µM on Genome polyprotein [1] and over 100 µM against Genome polyprotein [2].

On to `O=C(Nc1ccc2c(c1)CN[C@H]2c1ccccc1)c1cc(F)cc2[nH]ncc12`, for which the half-maximal inhibitory concentration (IC50) on Genome polyprotein [1] is over 99.5 µM; against Genome polyprotein [2], 65.9 µM.

On to `N#Cc1cc2c(cc1NC(=O)c1cc(F)cc3[nH]ncc13)CNC2`, for which the concentration for half-maximal inhibition (IC50) was 32.5 µM and 25.1 µM against Genome polyprotein [1]; 16.3 µM and 32 µM against Genome polyprotein [2].

As to `Cc1c(C(=O)Nc2cc(-c3cccnc3)ccn2)cc(C#N)n1C`, the IC50 at Genome polyprotein [1] is 57.7 µM; against Genome polyprotein [2] it was 53.3 µM and 62.1 µM.

For the compound `O=C(Nc1ccc2c(c1)CNC2)c1cccc2c1[C@]1(CCNC1)C(=O)N2`, the IC50 is over 99.5 µM against Genome polyprotein [1] and over 100 µM against Genome polyprotein [2].

Take `Cc1ncc(-c2cc(F)cc(C(=O)Nc3ccc4c(c3)CNC4)c2)s1`: the IC50 at Genome polyprotein [1] was over 99.5 µM; on Genome polyprotein [2], over 100 µM.

With `CC1=C(c2cc(F)cc(C(=O)Nc3ccc4c(c3)CNC4)c2)CCCC1`, the IC50 on Genome polyprotein [1] was over 99.5 µM; on Genome polyprotein [2], over 100 µM.

`C=Cc1cc2c(cc1NC(=O)c1cc(F)cc3[nH]ncc13)CNC2`: the concentration for half-maximal inhibition (IC50) on Genome polyprotein [1] was 52.7 µM; against Genome polyprotein [2], 32.8 µM.

As to `O=C(Nc1ccc2c(c1)CNC2)c1cc(F)cc2[nH]c(-c3ccccc3F)nc12`, the half-maximal inhibitory concentration (IC50) was 7.91 µM and 4.23 µM against Genome polyprotein [1]; 18.5 µM and 33.8 µM on Genome polyprotein [2].

With `Cc1nn(C)c(C)c1[C@H]1CCCN1C(=O)Nc1ccc2c(c1)CNC2`, the IC50 against Genome polyprotein [1] is over 99.5 µM; on Genome polyprotein [2], over 100 µM.

Consider `C#C[C@H](Nc1cc([C@H]2CCOC2)ccn1)c1cc(C2CC2)n(C)n1`, for which the 50% inhibitory concentration (IC50) was over 99.5 µM against Genome polyprotein [1] and over 100 µM against Genome polyprotein [2].

As for `CC(C)NC(=O)[C@H](Nc1ccc2c(c1)CN(CC(F)F)C2)c1cc(Cl)cc2[nH]ncc12`, the results for the IC50 on Genome polyprotein [1] and against Genome polyprotein [2] were over 99.5 µM and over 100 µM, respectively.

As for `O=C(Nc1ccc2c(c1)CN[C@H]2CCO)c1cc(F)cc2[nH]ncc12`, the IC50 is 50.8 µM on Genome polyprotein [1]; 23.9 µM and 29.9 µM against Genome polyprotein [2].

Take `CCc1cccc(-c2nc3c(C(=O)Nc4ccc5c(c4)CNC5)cc(F)cc3[nH]2)c1`: the concentration for half-maximal inhibition (IC50) at Genome polyprotein [1] is 14.5 µM and 7.53 µM; on Genome polyprotein [2] it was 88.9 µM and > 100 µM.

Regarding `O=C(Nc1ccc2c(c1)CNC2)c1cc(F)cc2[nH]c(-c3ccc(F)cc3)nc12`, the IC50 is 4.84 µM and 4.4 µM on Genome polyprotein [1]; 9.17 µM and 43.9 µM against Genome polyprotein [2].

Take `O=C(O)CCCc1cc(NC(=O)c2cc(F)cc3[nH]ncc23)cc2c1CNC2`: the results for the IC50 against Genome polyprotein [1] and against Genome polyprotein [2] were over 99.5 µM and 48.7 µM, respectively.

With `Cc1cc(-c2cc(F)cc(C(=O)Nc3ccc4c(c3)CNC4)c2)[nH]n1`, the 50% inhibitory concentration (IC50) against Genome polyprotein [1] is over 99.5 µM; at Genome polyprotein [2], over 100 µM.

Turning to `O=C(Nc1ccc2c(c1)CNC2)c1cc(Cl)cc2c1cnn2C1CCOCC1`, the IC50 was over 99.5 µM at Genome polyprotein [1] and over 100 µM on Genome polyprotein [2].

As for `C=CC[C@H]1NCc2cc(N[C@H](C(=O)NCC(F)F)c3cc(Cl)cc(C4CC4)c3)ccc21`, the IC50 is over 99.5 µM against Genome polyprotein [1] and over 100 µM against Genome polyprotein [2].

Consider `O=C(Nc1cc(-c2cccnc2)ccn1)c1cnn2c1CCCC2`, for which the IC50 against Genome polyprotein [1] is 18 µM and 13.8 µM; against Genome polyprotein [2], 16.5 µM and 19.7 µM.

On to `CC(C)(c1nc2c(C(=O)Nc3ccc4c(c3)CNC4)cc(F)cc2[nH]1)S(C)(=O)=O`, for which the IC50 at Genome polyprotein [1] was 33.6 µM and 26.3 µM; on Genome polyprotein [2] it was 34.3 µM and 51.7 µM.

For the compound `NCCc1csc2cc(C(=O)Nc3ccc4c(c3)CNC4)ccc12`, the IC50 was over 99.5 µM on Genome polyprotein [1] and over 100 µM against Genome polyprotein [2].

`O=C(Nc1ccc2c(c1)CN[C@H]2C[C@H](O)CO)c1cc(Cl)cc2[nH]ncc12`: the concentration for half-maximal inhibition (IC50) is over 99.5 µM at Genome polyprotein [1] and 80.2 µM against Genome polyprotein [2].

As for `Cn1c(=O)[nH]c2cc(C(=O)Nc3ccc4c(c3)CNC4)cc(Br)c21`, the 50% inhibitory concentration (IC50) is over 99.5 µM against Genome polyprotein [1]; 60 µM and 52.9 µM against Genome polyprotein [2].

For the compound `O=C(Nc1cc(-c2cccnc2)ccn1)c1cc(C2CC2)oc1C1CC1`, the IC50 is over 99.5 µM at Genome polyprotein [1] and over 100 µM against Genome polyprotein [2].

With `O=C(Nc1cc2c(c(C3=CCS(=O)(=O)CC3)c1)CNC2)c1cc(F)cc2[nH]ncc12`, the 50% inhibitory concentration (IC50) against Genome polyprotein [1] was 41.1 µM and 29.7 µM; at Genome polyprotein [2], 34.6 µM and 46.6 µM.

In the case of `O=C(Nc1cc2c(c(-c3ccnnc3)c1)CNC2)c1cc(Cl)cc2[nH]ncc12`, the IC50 against Genome polyprotein [1] was over 99.5 µM; against Genome polyprotein [2], 98.4 µM.

Regarding `O=C(Nc1ccc2c(c1)CNC2)c1cc(F)cc(-c2ccncc2)c1`, the half-inhibitory concentration (IC50) at Genome polyprotein [1] was over 99.5 µM; against Genome polyprotein [2] it was over 100 µM.

The record behind these values is ChEMBL document CHEMBL5604063, “ASAP - DENV-2 NS2B-NS3 protease fluorescence dose response” (2024).
